Results reported in US8697158B2, “Mineral amino acid polysaccharide complex” (Melaleuca, Inc., priority 2008, dated 2014).

What was measured:
[1] = Ascorbyl radical kinetics (EPR), iron-catalyzed ascorbic oxidation; details: for relative amplitude of the ascorbyl radical signal: iron solution 0.9 mM, ascorbic acid 4.04 mM, HEPES pH 7.2
Description: Samples of iron(II) sulfate, iron(II) bis-glycinate (FeAAC), and an iron(II) bis-glycinate inulin complex (FeAAC/OF; ratio 1:10 w/w) were analyzed using EPR spectroscopy to determine their ability to generate the ascorbate radical, i.e. to catalyze ascorbic oxidation. The samples were dissolved in 10 mM HEPES buffer (pH 7.2) to a final concentration 0.9 mM of iron.
The iron solutions were mixed with the ascorbic acid solution, and the mixture was transferred into capillary tubes for measurement. Multiple readings were performed over 30 minutes.
EPR measurements were performed in 50 μL capillary tubes at room temperature using a Bruker ER-200 X-band EPR spectrometer.
The relative amplitudes of the ascorbyl radical signal, which can be correlated to the concentration of ascorbyl radical present in the solution, were measured (Table 2).

[2] = Hydroxyl radical formation (EPR, DMPO spin trapping); details: metal 800 μM, DMPO 18.7 mM, H2O2 61 mM, HEPES pH 7.2; relative to AAC
Description: The rate of hydroxyl radical formation catalyzed by a complex comprising an iron- or copper-amino acid inulin complex was compared to the iron- or copper-amino acid compound alone.
Mineral (Cu or Fe) was dissolved in 10 mM HEPES buffer (pH 7.2) containing DMPO. Iron and copper were used in the form of amino acid compounds (i.e., glycinates; AAC) and as amino acid inulin complexes (1:9 w/w; AAC/OF). Hydrogen peroxide was added 90 seconds prior to measurement.
The spin trapping reagent—5,5-dimethylpyrroline-N-oxide (DMPO) was used for monitoring hydroxyl radical.
The relative signal amplitudes for DMPO/hydroxyl radical adduct, which can be correlated to the concentration of hydroxyl radical present in the solution, was measured (Table 3).

[3] = Mineral solubility at conditions close to physiological; details: one hour at pH 1-1.2, then one hour at pH 7-7.2; supernatant after centrifugation
Description: Two forms of zinc, copper, and iron were tested for solubility at conditions close to physiological. […] Samples, in an amount equivalent to 20 tablets, were suspended in 20 mL of water. The pH was adjusted to 1-1.2 and maintained for one hour, simulating a gastric environment. After the first hour, the pH was adjusted to 7-7.2 and maintained for another hour, simulating an intestinal environment. The product was then centrifuged and the supernatant taken for analysis.

[4] = Copper-mediated oxidation of Trolox (Fenton system, EPR)
Description: The one-electron oxidation of Trolox results in the formation of a phenoxyl radical that is readily detected by EPR. All EPR measurements were done in using a Bruker ER-200 X-band EPR spectrometer. Samples (50 μL) in capillary tubes (0.5 mm i.d.) were examined at room temperature.

Row | Compound | relative amplitude of the ascorbyl radical signal ([1]; time 1.5 min) [%] | relative amplitude of the ascorbyl radical signal ([1]; time 3.5 min) [%] | relative amplitude of the ascorbyl radical signal ([1]; time 5.5 min) [%] | relative amplitude of the ascorbyl radical signal ([1]; time 10.0 min) [%] | relative amplitude of the ascorbyl radical signal ([1]; time 14.0 min) [%] | relative amplitude of the ascorbyl radical signal ([1]; time 20.0 min) [%] | relative amplitude of the ascorbyl radical signal ([1]; time 28.0 min) [%] | relative signal amplitude for DMPO/hydroxyl radical adduct [2] [%] | other results
1 | O=S(=O)([O-])[O-].[Fe+2] [FeSO4, iron(II) sulfate] | 100 | 76 | 64 | 24 | 14 | 10 | 5 |  | 
2 | NCC(=O)[O-].NCC(=O)[O-].[Fe+2] [FeAAC, iron(II) bis-glycinate] | 100 | 74 | 65 | 47 | 33 | 19 | 19 | 100 | stabilization (lifetime) of the ascorbyl radical ([1]; compared with the iron sulfate): longer period of time
3 | NCC(=O)[O-].NCC(=O)[O-].[Cu+2] [Cu AAC] |  |  |  |  |  |  |  | 100 | 
4 | [O-2].[Zn+2] [Zinc Inorganic Form, zinc oxide] |  |  |  |  |  |  |  |  | percent of solubilized mineral [3]: 1.2%
5 | gluconate |  |  |  |  |  |  |  |  | EPR signal of the Trolox free radical, reduction compared to CuSO4 [4]: about 15%
